# Laboratory results: paper PMC6320863, “Interaction of Chrysin and Its Main Conjugated Metabolites Chrysin-7-Sulfate and Chrysin-7-Glucuronide with Serum Albumin” (International Journal of Molecular Sciences, 2018)
# Test system: T1, ochratoxin A–HSA complex
# T1 construct: purchased Sigma-Aldrich
# Assay: Fluorescence anisotropy of ochratoxin A–HSA complex
# Format: binding, human
# Conditions: 1.0 µmol/L ochratoxin A, 1.5 µmol/L HSA, flavonoid 2.5–30 μM, PBS pH 7.4, λex 393 nm, λem 446 nm
row,SMILES,Fluorescence anisotropy of ochratoxin A
1,"O=C(O)C1OC(Oc2cc(O)c3c(=O)cc(-c4ccccc4)oc3c2)C(O)C(O)C1O (stereo not drawn) [Chrysin-7-glucuronide, chrysin-7-glucuronide]",failed to affect
2,"O=c1cc(-c2ccccc2)oc2cc(O)cc(O)c12 [Chrysin, 5,7-dihydroxyflavone]",failed to affect
3,"O=c1cc(-c2ccccc2)oc2cc(OS(=O)(=O)O)cc(O)c12 [Chrysin-7-sulfate, chrysin-7-sulfate]",concentration-dependent decrease
